The subject of test [1] is MPTP-treated C57 black mice. The experiment in a line: MPTP-induced striatal dopamine depletion (HPLC-EC). Type of test: in vivo. The procedure: (§1) Six to 8-week-old […] mice weighing 30 g were housed in standard conditions: constant temperature (22±1° C.), humidity (relative, 30%) and a 12-h light/dark cycle, and were allowed free access to food and water. The animals and protocol procedures were approved and supervised by the Committee on Animal Care (COAC) at the Iowa State University. Rottlerin was dissolved in 1% dimethyl sulfoxide (DMSO) and was administered intraperitoneally at various doses. An equal volume of DMSO was given to controls. Rottlerin and DMSO administrations were started 24 h before the injections of the MPTP and continued for 5 days in the MPTP model. In the chronic regimens of MPTP administration, MPTP in phosphate-buffered saline (PBS) was injected intraperitoneally at doses of 30 mg/kg, once a day. Mice were sacrificed 2 days after the MPTP injections, and the striata were dissected for catecholamine analysis. Additionally, rottlerin alone (0.3-20 mg/kg) was administered via intraperitoneally or orally and then brain tissues were subjected to neurochemical analyses (FIG. 8). The mesencephalons were fixed in 4% paraformaldehyde for 5 days for tyrosine hydroxylase (TH) immunostaining.
DA and DOPAC levels in brain striatal tissues were determined by high-performance liquid chromatography with electrochemical detection (HPLC-EC); samples were prepared as described previously (Kitazawa, Anantharam et al. 2001). Briefly, neurotransmitters were extracted from samples using 0.1M perchloric acid containing 0.05% Na2EDTA and 0.1% Na2S2O5. The extracts were filtered in 0.22 micron spin tubes and 20 μl of the samples was loaded for analysis. DA and DOPAC were separated isocratically by a reversed-phase column with a flow rate of 0.7 ml/min. An HPLC system (ESA Inc., Bedford, Mass.) with an ESA automatic sampler (model 542) was used for these experiments. The electrochemical detection (EC) system consisted of an ESA coulochem model 5100A with a microanalysis cell model 5014A and a guard cell model 5020 (ESA Inc., Bedford, Mass.). The DA and DOPAC levels were measured as pg/mg protein and expressed as percent of control.

Test [2] relates to MPTP-treated C57 black mice. The experiment in a line: TH+ neuron count in substantia nigra pars compacta of MPTP mice (stereology). It is filed as in vivo. Here is the method: as §1
Brains removed following cervical dislocation were post-fixed in paraformaldehyde and used for TH immunolabelling and stereological studies. Fixed brains were cut into 30-μm sections and collected in cryoprotectant. Sections were rinsed in PBS at room temperature before immunostaining, then incubated with a anti-TH antibody as described (Thiruchelvam, McCormack et al. 2003; Thiruchelvam, Powers et al. 2004). The total number of TH^+ and TH Nissl-stained neurons in the SNpc were counted using the optical fractionator and previously described counting criteria (Thiruchelvam, McCormack et al. 2003; Thiruchelvam, Powers et al. 2004). After delineation of the region at low magnification (4× objective), every fourth section from the entire substantia nigra was sampled at higher magnification (100× objective) using StereoImager (Microbrightfield, Vt.).

For test [3], the system named is tyrosine hydroxylase (TH). The test is described as follows: TH activity (DOPA levels after NSD-1015) in PC12 cells. It is filed as cell-based. Particulars: 2 mM NSD-1015. The procedure:
PC12 cells, differentiated N27 dopaminergic cells and primary mesencephalic neurons were exposed to 1-10 μM rottlerin for the duration of the experiment. DMSO (0.01%) was used as vehicle control. PKCδ-DN- and Lac Z-expressing N27 cells were only treated with 0.01% DMSO. […] Untreated or vehicle treated cells were used as control samples.

In test [4] the target is PKCδ (Homo sapiens, UniProt Q05655). Particulars: cited from earlier work.
Chain of PKCδ (Homo sapiens, UniProt Q05655) (Q05655 whole entry): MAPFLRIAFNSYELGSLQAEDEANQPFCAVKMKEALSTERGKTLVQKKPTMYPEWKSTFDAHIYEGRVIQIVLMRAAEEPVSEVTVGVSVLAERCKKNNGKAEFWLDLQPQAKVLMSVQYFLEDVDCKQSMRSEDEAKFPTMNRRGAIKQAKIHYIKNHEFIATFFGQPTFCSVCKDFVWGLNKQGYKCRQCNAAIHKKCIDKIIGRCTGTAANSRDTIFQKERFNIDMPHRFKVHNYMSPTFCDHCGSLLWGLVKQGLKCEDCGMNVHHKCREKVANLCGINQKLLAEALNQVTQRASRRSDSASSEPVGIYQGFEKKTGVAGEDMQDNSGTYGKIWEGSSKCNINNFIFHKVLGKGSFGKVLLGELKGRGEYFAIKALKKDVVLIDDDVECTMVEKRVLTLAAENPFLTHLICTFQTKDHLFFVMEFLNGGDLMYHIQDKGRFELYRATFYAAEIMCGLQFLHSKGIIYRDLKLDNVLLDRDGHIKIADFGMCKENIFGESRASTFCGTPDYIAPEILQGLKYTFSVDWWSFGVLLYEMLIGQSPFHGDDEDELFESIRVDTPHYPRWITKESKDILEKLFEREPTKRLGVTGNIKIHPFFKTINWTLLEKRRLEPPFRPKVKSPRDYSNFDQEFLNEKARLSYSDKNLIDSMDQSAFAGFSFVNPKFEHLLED
The next test relates to PKCε, ζ, or η. The conditions noted are these: cited from earlier work.
Test [5] concerns PKCδ. Particulars: pretreatment, dose-dependent; cited from earlier work.

Each structure is given as a SMILES string.

In the case of `CC(=O)c1c(O)c(C)c(O)c(Cc2c(O)c3c(c(C(=O)/C=C/c4ccccc4)c2O)OC(C)(C)C=C3)c1O` [rottlerin], in test [1] (20 mg/kg rottlerin), the “protection against dopamine loss induced by MPTP toxicity in striatum” value stood at 50%. For the same molecule, in test [1] (oral 20 mg/kg and i.p. 3, 7 and 10 mg/kg rottlerin, dose-dependent), the “MPTP-induced decrease in dopamine and metabolite levels” value is on record as “significantly antagonized”. Moreover, the “dopamine level in striatum” value in test [1] (rottlerin 20 mg/kg + MPTP 30 mg/kg for 5 days) was found to be 112.8±25.32 pg/mg tissue weight. For the same molecule, in test [2] (cotreatment with 20 mg/kg rottlerin), the “protective effect against SNpc cell loss” value was 37%. Further, the “cell loss in SNpc” value in test [2] (cotreatment with 20 mg/kg rottlerin and MPTP 30 mg/kg) is recorded as 13%. The TH activity in test [3] (1 μM rottlerin 3 hr) is reported as 2091.09±80.17 pg DOPA/10^6 cells/hr; in test [3] (3 μM rottlerin 3 hr) it was 3045±75.31 pg DOPA/10^6 cells/hr. Besides, at PKCδ [4], the IC50 was 3 to 6 µM. The “fold more potent on PKCδ than on PKCε, ζ, or η” value with PKCε, ζ, or η is recorded as 13- to 33 fold. Further, the “MMT induced accumulation of PKCδ cleavage product and increased kinase activity” value with PKCδ [5] is recorded as “prevented”.

Source of the values: US8653023B1, “Dual beneficial effect of dopamine enhancing and neuroprotective actions of PKC delta inhibitors for treatment of Parkinson's disease” (Iowa State University Research Foundation, Inc., priority 2006, dated 2014).
